Measured values from US6472348B1, “Pyridone derivatives and herbicides” (Kumiai Chemical Industry Co., Ltd., priority 1996, dated 2002).

Legend:
monochoria (Mo) = experiment: Test Example 1: herbicidal effects by paddy field soil treatment; type: in vivo; conditions: 100 g of the active ingredient per 10 ares, 21st day after the application, index 0-5 of Table 47;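 further: grade of growth control; 5 = at least 90%; 4 = 70 to 90%; 3 = 50 to 70%; 2 = 30 to 50%; 1 = 10 to 30%; 0 = under 10%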
Summary of the method: (§1)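 Flooded paddy-soil pots (3 cm water) sown after puddling/leveling; treatment 100 g a.i./10 ares; greenhouse culture; herbicidal effect rated visually on a scoring scale at 21 d post-application.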

bulrush (Sc) = experiment: as above; type: in vivo; conditions: 100 g of the active ingredient per 10 ares, 21st day after the application, index 0-5 of Table 47;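 further: grade of growth control; 5 = at least 90%; 4 = 70 to 90%; 3 = 50 to 70%; 2 = 30 to 50%; 1 = 10 to 30%; 0 = under 10%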
Summary of the method: as §1

barnyardgrass (Ec) = experiment: as above; type: in vivo; conditions: 100 g of the active ingredient per 10 ares, 21st day after the application, index 0-5 of Table 47;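 further: grade of growth control; 5 = at least 90%; 4 = 70 to 90%; 3 = 50 to 70%; 2 = 30 to 50%; 1 = 10 to 30%; 0 = under 10%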
Summary of the method: as §1

wheat (Tr) [1] = experiment: Test Example 5: crop plant selectivity by upland field soil treatment (wheat), phytotoxicity; type: in vivo; parameters: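 grade of crop injury; 5 = at least 90%; 4 = 70 to 90%; 3 = 50 to 70%; 2 = 30 to 50%; 1 = 10 to 30%; 0 = under 10%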; conditions: 21st day after application
Summary of the method: (§2)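 Upland soil treatment test: crop and weed species sown in sand-filled pots and covered with soil before compound application. Visual scoring of weed control and wheat injury 21 days post-application, plants kept in a greenhouse, using a standard rating scale.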

China jute (Ab) [2] = experiment: Test Example 5: crop plant selectivity by upland field soil treatment (wheat), herbicidal effects; type: in vivo; parameters: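 grade of growth control; 5 = at least 90%; 4 = 70 to 90%; 3 = 50 to 70%; 2 = 30 to 50%; 1 = 10 to 30%; 0 = under 10%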; conditions: 21st day after application
Summary of the method: as §2

wheat (Tr) [3] = experiment: Test Example 9: crop plant selectivity by upland field foliage treatment (wheat), phytotoxicity; conditions: dose 1.6 g ai/10a, 14th day after treatment;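 further: grade of crop injury; 5 = at least 90%; 4 = 70 to 90%; 3 = 50 to 70%; 2 = 30 to 50%; 1 = 10 to 30%; 0 = under 10%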
Summary of the method: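 Read-out: weed control and wheat injury, rated by a defined scoring standard 14 days after foliar application.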

corn (Ze) = experiment: Test Example 7: crop plant selectivity by upland field soil treatment (corn), phytotoxicity; type: in vivo; parameters: scale not given here; conditions: 21st day after application
Summary of the method: (§3)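 Greenhouse pot test: scores for herbicidal effect and corn phytotoxicity were given 21 days after soil treatment, against set rating standards. Crop and weed species (foxtail, smartweed, amaranth, lambsquarters, China jute) were sown together in sand and covered with soil beforehand.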

China jute (Ab) [4] = experiment: Test Example 7: crop plant selectivity by upland field soil treatment (corn), herbicidal effects; type: in vivo; parameters: scale not given here; conditions: 21st day after application
Summary of the method: as §3

slender amaranth (Am) = experiment: as above; type: in vivo; parameters: scale not given here; conditions: 21st day after application
Summary of the method: as §3

[5] = system: common lambsquarters (Ch); experiment: as above; type: in vivo; parameters: scale not given here; conditions: 21st day after application
Summary of the method: as §3

green foxtail (Se) = experiment: as above; type: in vivo; parameters: scale not given here; conditions: 21st day after application
Summary of the method: as §3

pale smartweed (Po) = experiment: as above; type: in vivo; parameters: scale not given here; conditions: 21st day after application
Summary of the method: as §3

| SMILES | Herbicidal effects Mo (monochoria (Mo)) | Herbicidal effects Sc (bulrush (Sc)) | Herbicidal effects Ec (barnyardgrass (Ec)) | Phytotoxicity Tr (wheat (Tr) [1]; dose 6.3 g ai/10a) | Herbicidal effects Ab (China jute (Ab) [2]; dose 6.3 g ai/10a) | Phytotoxicity Tr (wheat (Tr) [3]) | Phytotoxicity Tr (wheat (Tr) [1]; dose 1.6 g ai/10a) | Herbicidal effects Ab (China jute (Ab) [2]; dose 1.6 g ai/10a) | Phytotoxicity Ze (corn (Ze); dose 1.6 g ai/10a) | Herbicidal effects Ab (China jute (Ab) [4]; dose 1.6 g ai/10a) | Herbicidal effects Am (slender amaranth (Am); dose 1.6 g ai/10a) | Herbicidal effects Ch ([5]; dose 1.6 g ai/10a) | Herbicidal effects Se (green foxtail (Se); dose 1.6 g ai/10a) | Herbicidal effects Po (pale smartweed (Po); dose 1.6 g ai/10a) | Phytotoxicity Ze (corn (Ze); dose 6.3 g ai/10a) | Herbicidal effects Ab (China jute (Ab) [4]; dose 6.3 g ai/10a) | Herbicidal effects Am (slender amaranth (Am); dose 6.3 g ai/10a) | Herbicidal effects Ch ([5]; dose 6.3 g ai/10a) | Herbicidal effects Se (green foxtail (Se); dose 6.3 g ai/10a) | Herbicidal effects Po (pale smartweed (Po); dose 6.3 g ai/10a) |
| --- | --- | --- | --- | --- | --- | --- | --- | --- | --- | --- | --- | --- | --- | --- | --- | --- | --- | --- | --- | --- |
| C#CCN1C(=O)COc2cc(F)c(-c3cn(C)c(C(F)(F)F)cc3=O)cc21 [Compound 7-1] | 5 | 5 | 5 | 2 | 5 | 2 |  |  |  |  |  |  |  |  |  |  |  |  |  |  |
| C#CCN1C(=O)COc2cc(F)c(-c3ccc(C(F)(F)F)n(C)c3=O)cc21 [Compound No. 2-1, 3-[7-fluoro-2,3-dihydro-4-(2-propynyl)-1,4-benzoxazin-3-on-6-yl]-1-methyl-6-trifluoromethyl-2(1H)-pyridone] | 5 | 5 | 5 |  |  |  | 0 | 5 |  |  |  |  |  |  |  |  |  |  |  |  |
| Cn1c(C(F)(F)F)ccc(-c2cc(Cl)c(Cl)cc2F)c1=O [1-136] | 5 | 5 | 5 | 2 | 5 |  | 1 | 4 | 1 | 5 | 5 | 5 | 5 | 5 |  |  |  |  |  |  |
| Cn1c(C(F)(F)F)ccc(-c2cc(C#N)c(Cl)cc2F)c1=O [Compound No. 1-119, 3-(4-chloro-5-cyano-2-fluorophenyl)-1-methyl-6-trifluoromethyl-2(1H)-pyridone] | 5 | 5 | 5 |  |  | 2 |  |  |  |  |  |  |  |  | 1 | 5 | 5 | 5 | 5 | 5 |
| Cn1c(C(F)(F)F)ccc(-c2cc(OCC#N)c(Cl)cc2F)c1=O [1-25] | 5 | 5 | 5 |  |  | 2 |  |  |  |  |  |  |  |  | 1 | 5 | 5 | 5 | 5 | 5 |
| C#CC(C)Oc1cc(-c2cn(C)c(C(F)(F)F)cc2=O)c(F)cc1Cl (racemic) [Compound 6-10] | 5 | 5 | 5 |  |  |  | 0 | 4 |  |  |  |  |  |  |  |  |  |  |  |  |
| Cc1cc(-c2ccc(C(F)(F)F)n(C)c2=O)c(F)cc1Cl [1-90] | 5 | 5 | 5 | 1 | 5 |  |  |  | 1 | 5 | 5 | 5 | 5 | 5 | 2 | 5 | 5 | 5 | 5 | 5 |
| C#CCOc1cc(-c2ccc(C(F)(F)F)n(C)c2=O)c(F)cc1Cl [1-18] | 5 | 5 | 5 |  |  |  | 2 | 5 | 1 | 5 | 5 | 5 | 5 | 5 | 2 | 5 | 5 | 5 | 5 | 5 |
| Cc1cc2c(-c3cn(C)c(C(F)(F)F)cc3=O)c(F)cc(Cl)c2o1 [Compound No. 9-1, 5-(7-chloro-5-fluoro-2-methylbenzofuran-4-yl)-1-methyl-2-trifluoromethyl-4(1H)-pyridone] | 5 | 5 | 5 | 1 | 5 |  | 0 | 5 |  |  |  |  |  |  |  |  |  |  |  |  |
| Cn1c(C(F)(F)F)ccc(-c2cc(OCC(F)(F)F)c(Cl)cc2F)c1=O [1-155] | 5 | 5 | 5 | 2 | 5 |  | 1 | 5 | 0 | 5 | 5 | 5 | 5 | 5 | 0 | 5 | 5 | 5 | 5 | 5 |
